In patent publication EP3736570A1, “METHOD FOR THE DIAGNOSIS, SUB-CLASSIFICATION AND PROGNOSIS OF ACUTE KIDNEY INJURY BY DETECTING CCT7” (Fundación Instituto de Estudios de Ciencias de la Salud de …, priority 2019, dated 2020):
Counter-ions that a name gives are not always drawn. Like-named read-outs stand apart in the source and are kept apart here.

What was measured:
Male Wistar rats [1] = experiment: Rat models of AKI: urinary markers by Western blot; assay type: in vivo
Text: (§1) Caspase activity. […] Western blot.
(§2) Rat models of AKI. Male Wistar rats (220-240 g) were housed under controlled experimental conditions and allowed free access to regular chow and water. […] Rats were allocated in metabolic cages to obtain 24-hour, individual urine samples. Blood was drawn with a needle from the tail vein, and plasma was obtained by centrifugation and, at the end of the treatments, kidneys were perfused with heparinized saline and immediately dissected. Half of the kidney was fixed in paraformaldehyde for histological studies, and the rest was frozen at -80 °C for biochemical analysis.

Male Wistar rats [2] = experiment: Rat models of AKI: renal function (plasma creatinine); assay type: in vivo; conditions: cisplatin single i.p. 5 mg/kg, gentamicin i.p. 150 mg/kg per day for 6 days
Description: Renal function. Renal function was monitored by means of plasma creatinine and urea and urinary protein concentration, which were determined with commercial colorimetric kits (Quantichrom Creatinine and Quantichrom Urea Assay Kits, BioAssay Systems, Hayward, CA, USA), according to the manufacturer's instructions.

Male Wistar rats [3] = experiment: Rat models of AKI: renal histopathology; assay type: in vivo; conditions: hematoxylin and eosin, cisplatin 5 mg/kg i.p., gentamicin 150 mg/kg per day i.p. for 6 days
Text: as §2
Renal histopathology. Paraformaldehyde-fixed tissue samples were immersed in paraffin, cut into […] slices and stained with hematoxylin and eosin.

MCT cells [4] = experiment: Western blot / 2D proteomic analysis of culture medium and cell extracts; conditions: 18 h, cisplatin 0-30 µM, cycloheximide 50-800 µM
Description: (§4) A mouse cortical tubule cell line (MCT) was used for the study. Cells were maintained in RPMI 1640 medium (Gibco, Madrid, Spain) supplemented with 10% fetal bovine serum (FBS, Gibco, Madrid, Spain), 500 U/mL penicillin, 50 mg/mL streptomycin (Gibco, Madrid, Spain) and 1 mM L-glutamine. […] During the treatments, cells were photographed under live cell, light microscope (Axiovert 200M, Zeiss; and Nikon Eclipse TS100, Barcelona, Spain) for visual inspection. At the end, cell extracts were obtained in extraction buffer (25 mM PIPES, pH7; 25 mM KCI; 5 mM EGTA; 0,5% NP-40, and a mixture of protease inhibitors consisting of 1 mM phenylsulfonyl fluoride, 1 µg/mL leupeptine, and 1 µg/mL aprotinin). Protein content was determined with a commercial kit (Bio-Rad, Madrid, Spain) based in the Lowry method.
(§5) Caspase activity. Twenty micrograms of protein from cell extracts were incubated with 100 µL reaction buffer (50 mM HEPES, pH7.4; 100 mM NaCl; 1 mM EDTA; 0.1% 3-[3-(cholamidopropyl)-dimethylammonio]-1-propane sulfonate; 10% sucrose; and 5 mM DTT) containing 100 µM of the fluorogenic caspase substrate rhodamine 110, bis-(N-CBZ-L-aspartyl-L-glutamyl-L-valyl-L-aspartic acidamide (Z-DEVD)2Rh110; Anaspec, Fremont, CA, USA)) at 37 °C for 30 min in a Fluoroskan Ascent FL fluorometer (Thermo, Rockford, IL, USA), and fluorescence intensity was measured every 3 min at 538 nm, upon excitation at 485 nm. Caspase activity was calculated from the slope of the linear relationship between fluorescence intensity and time.

MCT cells [5] = experiment: RT-qPCR analysis of gene expression; assay type: cell-based, mouse; conditions: 0-30 µM cisplatin, 18 h, normalized with RPS13
Description: (§3) Reagents, cells, and protocols.
RT-qPCR analysis. Total RNA was isolated using Nucleospin RNAII (Macherey-Nagel, Düren, Germany). First-strand cDNA was generated from 1 µg of total RNA using poly-dT as primer with the M-MLV reverse transcriptase (Promega, Barcelona, Spain). Real-time PCR (qPCR) was performed in triplicate. In a total reaction volume of 20 µL containing 1 µL of cDNA, 0.4 µM of each primer and 1x iQSybrGreen Supermix (Bio-Rad), with initial denaturation at 95 °C for 5 min followed by 40 cycles of 30 sec at 95 °C, and 30 sec at 65 °C, and finally, one cycle of 30 sec at 72 °C. Threshold cycle (Ct) values were obtained. The sequences of TCP1-eta used were: sense 5'-[…]-3' (SEQ ID NO: 1); anti-sense 5'-[…]-3' (SEQ ID NO: 2); and RPS13: sense 5'-[…]-3' (SEQ ID NO: 3); anti-sense 5'-[…]-3' (SEQ ID NO: 4). Standard curves were run for each transcript to assure exponential amplification and to rule out non-specific amplification. Changes in the expression level were calculated following normalization with RPS13. The reactions were run on an iQ5 Real-Time PCR detection system (Bio-Rad, Madrid, Spain).

MCT cells [6] = experiment: Apoptotic cells / death phenotype by light microscopy; conditions: medium without serum, 18 h, cisplatin 0-30 µM, cycloheximide 50-800 µM
Description: (§6) Reagents, cells, and protocols. Where not otherwise indicated, reagents were purchased from Sigma (Madrid, Spain). A mouse cortical tubule cell line (MCT) was used for the study. Cells were maintained in RPMI 1640 medium (Gibco, Madrid, Spain) supplemented with 10% fetal bovine serum (FBS, Gibco, Madrid, Spain), 500 U/mL penicillin, 50 mg/mL streptomycin (Gibco, Madrid, Spain) and 1 mM L-glutamine. […] During the treatments, cells were photographed under live cell, light microscope (Axiovert 200M, Zeiss; and Nikon Eclipse TS100, Barcelona, Spain) for visual inspection. At the end, cell extracts were obtained in extraction buffer (25 mM PIPES, pH7; 25 mM KCI; 5 mM EGTA; 0,5% NP-40, and a mixture of protease inhibitors consisting of 1 mM phenylsulfonyl fluoride, 1 µg/mL leupeptine, and 1 µg/mL aprotinin). Protein content was determined with a commercial kit (Bio-Rad, Madrid, Spain) based in the Lowry method.

MCT cells [7] = experiment: Caspase (DEVDase) activity in cell extracts; assay type: cell-based, mouse; conditions: cisplatin, 18 h, concentration-dependent
Text: as §3, §1

MCT cells [8] = experiment: Internucleosomal DNA fragmentation; assay type: cell-based, mouse; conditions: cisplatin, 18 h, concentration-dependent
Description: as §3
DNA fragmentation. DNA fragmentation was determined with the commercial kit Cell Death Detection Plus (Roche Diagnostics, Barcelona, Spain) in 10 µg of protein from each cell extract.

MCT cells [9] = system: MCT cells
Description: as §6

MCT cells [10] = system: MCT cells; remark: listed apart in the source
Description: Where not otherwise indicated, reagents were purchased from Sigma (Madrid, Spain). A mouse cortical tubule cell line (MCT) was used for the study. Cells were maintained in RPMI 1640 medium (Gibco, Madrid, Spain) supplemented with 10% fetal bovine serum (FBS, Gibco, Madrid, Spain), 500 U/mL penicillin, 50 mg/mL streptomycin (Gibco, Madrid, Spain) and 1 mM L-glutamine. […] During the treatments, cells were photographed under live cell, light microscope (Axiovert 200M, Zeiss; and Nikon Eclipse TS100, Barcelona, Spain) for visual inspection.
MTT assay. Viable cell number was comparatively estimated by incubating cell cultures with 0.5 mg/mL 3-[4,5-dimethylthiazol-2-yl]-2,5-diphrnyl tetrazolium bromide (MTT) for 4h. Then, 10% SDS in 0.01 M HCL was added in 1:1 (vol/vol) and left overnight at 37 °C. Finally, absorbance was measured at 570 nm as an index of viable cell number.

MCT cells [11] = system: MCT cells; remark: listed apart in the source
Description: as §4, §5

[12] = rats, cisplatin single i.p. 5 mg/kg, gentamicin i.p. 150 mg/kg per day for 6 days, Western blot

With gentamicin the “urinary NGAL” value (Male Wistar rats [1]; [12]) was “significantly increases”, the “urinary TCP1-eta” value (Male Wistar rats [1]; [12]) was “significantly increases” and the Plasma creatinine (Male Wistar rats [2]) was “significantly increases”. For the same compound, the “pattern of renal damage (region affected)” value (Male Wistar rats [3]) was “mostly the cortex and, to a lesser extent, the medulla”.
In the case of `N.N.[Cl][Pt][Cl]` [cisplatin], the “urinary NGAL” value (Male Wistar rats [1]; [12]) is reported as “significantly increases”, the “urinary TCP1-eta” value (Male Wistar rats [1]; [12]) is reported as “significantly increases” and the “TCP1-eta in the culture medium” value (MCT cells [4]) is reported as “increased with increasing concentrations of cisplatin”. The TCP1-eta gene expression (MCT cells [5]) was “progressive TCP1-eta gene induction with increasing concentrations of the drug”, the “number of apoptotic cells / apoptotic phenotype” value (MCT cells [6]) was “increased the number of apoptotic cells” and the “caspase (DEVDase) activity” value (MCT cells [7]) was “increased”. The “pattern of renal damage (region affected)” value (Male Wistar rats [3]) was “both the cortex and the outer medulla” and the “internucleosomal DNA fragmentation” value (MCT cells [8]) was “increased”.
In the case of `O=C(O)/C=C\C(=O)O` [sodium maleate], the “urinary TCP1-eta” value (Male Wistar rats [1]; normal rats, single i.v. injection of sodium maleate 400 mg/kg) is reported as “TCP1-eta is excreted with the urine”.
In the case of `C[C@@H]1C[C@@H]([C@H](O)CC2CC(=O)NC(=O)C2)C(=O)[C@@H](C)C1` [Cycloheximide, cycloheximide], the “number of apoptotic cells / apoptotic phenotype” value (MCT cells [9]) is reported as “induces apoptosis”, the cell viability (MCT cells [10]) is reported as “reduces cell viability” and the “TCP1-eta in the culture medium” value (MCT cells [11]) is reported as “increases TCP1-eta secretion to the culture medium”. For the same compound, the “executioner caspase 3 (active caspase 3, p19 fragment)” value (MCT cells [11]) was “executioner caspase 3 activation”.
